Values of other authors in patent publication US20240066015A1, “TREATMENT OF PAIN ASSOCIATED WITH PARKINSON'S DISEASE” (BIAL-PORTELA & CA., S.A., priority 2021, published 2024).

Legend:
[1] = in comparison with placebo, added to levodopa-based therapy
[2] = oral administration, peripheral metabolism by DDC and COMT
[3] = transdermal patch, patients with advanced-stage PD; trial not powered for statistical significance
[4] = patients with PD and end-of-dose motor fluctuations
[5] = hot plate test
[6] = BIPARK-II trial and OPTIPARK study

In the case of `C[C@H](NCc1ccc(OCc2cccc(F)c2)cc1)C(N)=O` [Safinamide], the PDQ-39 pain-related items [1] is given as “significantly improve two out of three” and the “need for pain medication” value [1] is given as “significantly reduce”.
For `N[C@@H](Cc1ccc(O)c(O)c1)C(=O)O` [levodopa], the “share of an oral dose that reaches the brain” value [2] is given as 1%.
For `CCCN(CCc1cccs1)[C@H]1CCc2c(O)cccc2C1` [rotigotine], the PD-associated chronic pain [3] is given as “may improve”.
For `Cc1c(Cl)c(C)[n+]([O-])c(Cl)c1-c1noc(-c2cc(O)c(O)c([N+](=O)[O-])c2)n1` [opicapone], the OFF-time [4] is listed as “efficacious in reducing OFF-time”, the tolerability [4] is listed as “generally well tolerated” and the “NMSS "Miscellaneous" domain effect compared with placebo” value (BIPARK-II trial) is listed as “less than for that observed for placebo”. For the same compound, the “NMSS "Miscellaneous" domain (includes pain as one aspect)” value [6] was “positive signal” and the “specific effect on pain” value [6] was “no specific effect on pain was identifiable”.
For `CC(=O)C(=Cc1cc(O)c(O)c([N+](=O)[O-])c1)C(C)=O` [nitecapone], the “mediation of the analgesic effect” value [5] is listed as “not mediated through the CNS”.
